What was measured:
mGluR5 [1] = target: T1, mGluR5 (Homo sapiens, UniProt P41594); test: mGluR5 PAM EC50 (positive allosteric modulator potency); type: cell-based
mGluR5 [2] = target: T1, mGluR5; test: mGluR5 fold shift at a fixed compound concentration; type: cell-based

T1 sequence (P41594 21-1212): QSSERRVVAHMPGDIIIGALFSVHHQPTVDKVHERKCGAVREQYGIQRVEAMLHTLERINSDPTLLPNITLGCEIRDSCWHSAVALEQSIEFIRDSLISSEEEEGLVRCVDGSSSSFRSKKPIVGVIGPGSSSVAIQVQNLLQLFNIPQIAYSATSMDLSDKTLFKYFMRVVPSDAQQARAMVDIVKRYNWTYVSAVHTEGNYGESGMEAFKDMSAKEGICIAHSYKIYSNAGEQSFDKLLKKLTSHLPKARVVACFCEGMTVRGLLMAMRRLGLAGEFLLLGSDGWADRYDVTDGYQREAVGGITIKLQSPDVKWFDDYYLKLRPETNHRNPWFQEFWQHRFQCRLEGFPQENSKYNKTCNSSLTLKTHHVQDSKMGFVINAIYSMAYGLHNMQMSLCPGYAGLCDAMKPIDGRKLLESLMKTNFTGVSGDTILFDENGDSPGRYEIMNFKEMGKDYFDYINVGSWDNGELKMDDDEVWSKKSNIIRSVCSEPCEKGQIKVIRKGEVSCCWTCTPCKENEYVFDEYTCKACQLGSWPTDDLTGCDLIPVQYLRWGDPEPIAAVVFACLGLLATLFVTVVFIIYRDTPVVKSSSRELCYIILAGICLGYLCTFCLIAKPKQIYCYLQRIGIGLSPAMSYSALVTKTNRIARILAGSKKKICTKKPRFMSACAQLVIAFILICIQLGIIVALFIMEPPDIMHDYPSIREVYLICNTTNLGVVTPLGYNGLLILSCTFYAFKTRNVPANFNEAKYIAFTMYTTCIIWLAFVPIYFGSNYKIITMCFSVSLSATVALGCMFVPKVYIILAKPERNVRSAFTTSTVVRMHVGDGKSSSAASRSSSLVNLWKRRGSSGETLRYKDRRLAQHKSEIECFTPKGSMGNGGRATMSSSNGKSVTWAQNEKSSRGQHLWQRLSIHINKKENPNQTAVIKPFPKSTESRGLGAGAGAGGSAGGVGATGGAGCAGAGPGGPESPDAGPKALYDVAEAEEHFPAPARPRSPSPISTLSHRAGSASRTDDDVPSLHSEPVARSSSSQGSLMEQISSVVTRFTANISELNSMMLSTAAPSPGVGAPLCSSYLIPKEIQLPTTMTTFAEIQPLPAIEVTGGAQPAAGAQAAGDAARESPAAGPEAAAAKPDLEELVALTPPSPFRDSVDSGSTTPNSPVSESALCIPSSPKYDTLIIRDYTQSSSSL

Q: With O=c1c2ccc(C#Cc3ccccn3)cc2nc2n1CC1(CCC1)C2 [Example 1.7, 6′-(pyridin-2-ylethynyl)-1′H-spiro[cyclobutane-1,2′-pyrrolo[2,1-b]quinazolin]-9′(3′H)-one] as the compound, how does the EC50 (mGluR5 [1]) read?
A: Its EC50 is 10 to 30 nM.

Q: And the “Fold shift at 1 μM” value (mGluR5 [2])?
A: Its value is “+++ (+++>3)”.

Q: Which results are given for CC1(C)CCc2nc3cc(C#Cc4ccc(Cl)cn4)ccc3c(=O)n2C1 [Example 2.42, 3-((5-chloropyridin-2-yl)ethynyl)-8,8-dimethyl-8,9-dihydro-6H-pyrido[2,1-b]quinazolin-11(7H)-one]?
A: EC50 (mGluR5 [1]): < 10 nM; Fold shift at 1 μM (mGluR5 [2]): +++ (+++>3)

Q: Which results are given for CCC1(C)Cc2nc3cc(C#Cc4ccccn4)ccc3c(=O)n2C1 (stereo not drawn) [Example 1.10, 2-ethyl-2-methyl-6-(pyridin-2-ylethynyl)-2,3-dihydropyrrolo[2,1-b]quinazolin-9(1H)-one]?
A: EC50 (mGluR5 [1]): 10 to 30 nM; Fold shift at 1 μM (mGluR5 [2]): +++ (+++>3)

Q: Which results are given for Cc1cccc(C#Cc2ccc3c(=O)n4c(nc3c2)CCC(C)(C)C4)n1 [Example 2.41, 8,8-dimethyl-3-((6-methylpyridin-2-yl)ethynyl)-8,9-dihydro-6H-pyrido[2,1-b]quinazolin-11(7H)-one]?
A: EC50 (mGluR5 [1]): 10 to 30 nM; Fold shift at 1 μM (mGluR5 [2]): +++ (+++>3)

Q: For O=c1c2ccc(C#Cc3ccccn3)cc2nc2n1CC1(CCC2)CC1(F)F (stereo not drawn) [Example 3.40, 2′,2′-difluoro-3-(pyridin-2-ylethynyl)-7,8-dihydro-6H-spiro[azepino[2,1-b]quinazoline-9,1′-cyclopropan]-12(10H)-one], which EC50 (mGluR5 [1]) is on record?
A: Its EC50 is 10 to 30 nM.

Q: And the “Fold shift at 1 μM” value (mGluR5 [2])?
A: Its value is “+++ (+++>3)”.

Q: What does the source list for O=c1c2ccc(C#Cc3ccccn3)cc2nc2n1CCC(F)(F)CC2 [Example 3.15, 8,8-difluoro-3-(pyridin-2-ylethynyl)-7,8,9,10-tetrahydroazepino[2,1-b]quinazolin-12(6H)-one]?
A: EC50 (mGluR5 [1]): 10 to 30 nM; Fold shift at 10 μM (mGluR5 [2]; at 10 μM): +++ (+++>3)

Reference: patent publication US9708331B2, “Metabotrophic glutamate receptor 5 modulators and methods of use thereof” (SUNOVION PHARMACEUTICALS INC., priority 2011, dated 2017)
